Experimental findings from PMC12429841, “Monothiooxalamide–Benzothiazole Hybrids: Predictive Docking on HDAC6, Synthesis, Molecular Structure, and Antiproliferative Activity on Breast Cancer Cells” (International Journal of Molecular Sciences, 2025) are described below.

For assay [1], the system named is MCF-7 cells. Description: Antiproliferative activity, MTT assay, MCF-7. It is filed as cell-based, human. The note with it: for IC50: Homo sapiens, MCF7, MTT, mean ± SD of at least three independent experiments. Here is the method: (§1) The antiproliferative effect of monothiooxalamides 1a–d and 2a–d was assessed in MCF-7 (human breast cancer cell line with estrogen, progesterone, and glucocorticoid receptors), MDA-MB-231 (triple-negative human breast cancer), MCF-10A (non-tumorigenic human mammary epithelial cell line), and NIH/3T3 (mouse fibroblast). The cytotoxicity is expressed as IC50 values in micromolar concentrations, Table 4. […] In contrast, the cytotoxic effect on triple-negative cells MDA-MB-231 was similar to that observed in MCF-10A. […] Nevertheless, it is worth considering that NIH/3T3 are mouse fibroblasts, while the other three cell lines are human cells; therefore, the physiological differences between both species could play an essential role in the exerted effect. Several studies have evaluated 2-aminobenzothiazole derivatives against various cell lines. The targets of this kind of compounds are wide, including HDAC6, tyrosine kinase receptors family (CSF1R kinase, EGFR kinase, VEGFR-2 kinase, FAK kinase), serine/threonine kinases, lysine-specific demethylase (LSD1), phosphoinositide 3-kinase (PI3K), topoisomerases (I and II), Heat shock protein (HSP90), p53, nuclear receptor binding set (NSD1), microsomal prostaglandin E synthase-1 (mPGES-1), and also as chelators of metal ions, which are necessaries for critical biological processes such as gene expression, oxygen transport, and cell respiration. In all cases, the IC50 values were reported in a wide range, from 1 nM to 50 µM. On the other hand, our research group reported a family of MTAs containing 2-aminopyridine, with an activity range of 0.19–18 µM against several human cancer cell lines (A2780-wt, A2780-cis-MSTO-211H, and HT-29). […] Whereas 1c could be a feasible candidate to obtain better results compared with 1a, 2a–c, which were highly cytotoxic to non-tumorigenic cells. As a perspective, the synergic activity of 1c, in combination with antioxidants like curcumin, resveratrol, and quercetin, could also be explored, with the aim to sensitize cancer cells against cytotoxic agents and diminish their toxicity in non-tumorigenic cells. In contrast, MTX, which is an antineoplastic drug, is widely used for many kinds of cancer treatments, including breast cancer. Their mechanism of action is related to the inhibition of dihydrofolate reductase (DHFR). […] Nevertheless, MTX exerted an undesirable effect on NIH/3T3 cells. Although the compounds were not better than MTX, their antiproliferative effect was similar to 2ABT, thioureas, 3-carboxy-coumarin sulfonamides, pyrimethamine conjugates, and N-hydroxycinnamide analogs. Highlighting its low toxicity to non-tumor cells, 1c might be a better option than methotrexate to reduce adverse side effects associated with chemotherapy.
(§2) MDA-MB-231 adenocarcinoma cell line was procured from ATCC (CRM-HTB-26TM). […] Cell culture was performed in the appropriate medium for each cell line (MCF-7, MDA-MB-231, MCF-10A, and NIH/3T3). MCF-7, MDA-MB-231, and NIH/3T3 cells were grown in Dulbecco’s modified Eagle Medium (DMEM) high-glucose with phenol red, supplemented with fetal bovine serum inactivated by heat (10%) (BioWest, Miami, FL, USA) and antibiotic (100 U/mL penicillin and […] streptomycin). MCF-10A were grown in DMEM-F12 medium, supplemented with 5% of horse serum inactivated by heat (Biowest, Miami, FL, USA), […] of insulin, 20 ng/mL of epidermal growth factor, 500 ng/mL hydrocortisone, and antibiotic (100 U/mL penicillin and […] streptomycin). All cell lines were incubated at 37 °C with 5% CO2 after reaching 80% confluence at 24 h. The cells were seeded in a 96-well cell culture plate (10,000 cells/well). After incubation, the cells were treated with compounds (1a–1d and 2a–2d) at varying concentrations (100, 50, 25, 12.5, and 6.25 µM) and then incubated for 42 h under standard conditions. […]
In general terms: Tetrazolium assays rely on reduction of a dye to a coloured formazan, in cell work by metabolically active cells.

Assay [2] deals with MDA-MB-231 cells. Nature of the assay: Antiproliferative activity, MTT assay, MDA-MB-231. The format is cell-based. Conditions: Homo sapiens, mean ± SD of at least three independent experiments. Here is the method:
as §1, §2

Assay [3] deals with MCF-10A cells. Description: Antiproliferative activity, MTT assay, MCF-10A. The format is cell-based. The note with it: Homo sapiens, non-tumorigenic cells, mean ± SD. Here is the method:
as §1, §2

Assay [4] relates to NIH/3T3 cells. Description: Antiproliferative activity, MTT assay, NIH/3T3. It is filed as cell-based. Conditions: NIH3T3, mouse fibroblast, mean ± SD. The method, then: as §1
as §2, with “streptomycin).” for “streptomycin). All cell lines were incubated at 37 °C with 5% CO2 after reaching 80% confluence at 24 h. The cells were seeded in a 96-well cell culture plate (10,000 cells/well). After incubation, the cells were treated with compounds (1a–1d and 2a–2d) at varying concentrations (100, 50, 25, 12.5, and 6.25 µM) and then incubated for 42 h under standard conditions.”

The subject of assay [5] is MDA-MB-231 cells. Description: Wound closure (cell migration) assay. The note with it: MDA-MB-231, treated at IC50 concentration; for wound closure rate: 0-48 h; for maximum wound closure: 48 h. The format is cell-based, human. Here is the method:
The triple-negative cancer, produced by MDA-MB-231 cells, is highly invasive and metastatic, capable of migrating to other tissues. […] The wound closure begins at 12 h, at this time, there is a significant difference between cells treated with compound 1c and MTX compared with non-treated cells. Nevertheless, the maximum effect is observed at 48 h, when wound closure is complete for non-treated cells. For cells treated with compound 1c, the maximum wound closure was 51%, while for the reference drug, MTX, it was 38% at 48 h. In both cases, there is a significant difference from the control, with wound closure rates of −2.0 ± 0.1 (R = 0.98), −1.0 ± 0.1 (R = 0.94), and −0.7 ± 0.1 (0.88) in %area/h for control, 1c, and MTX, respectively. The results confirmed the capability of 1c to prevent cell migration in MDA-MB-231 cells, similar to the reference drug MTX, and other reported BTs.
The wound closure assay was performed according to the reported methods on MDA-MB-231 cell line. For this purpose, cells (2 × 10^5) were seeded in complete medium on a 24-well plate and incubated for 24 h under standard conditions. After that, the wound gap was made by scratching the cell monolayer with a 200 µL pipette tip. Cell debris and exhausted medium were discarded, washed with PBS, and the medium was replaced. […] The wound closure was monitored by microscopy at 12, 24, and 48 h, and the wound area was measured in duplicate in three independent experiments using ImageJ (1.54k) software. The results were expressed as a percentage of the control (cell culture medium with 0.1% DMSO).

Assay [6] has as its system MCF-7 cells. Nature of the assay: Annexin V apoptosis induction assay, MCF-7. Conditions: MCF-7, IC50 concentration, 48 h. It is filed as cell-based, human. An excerpt: (§3) Apoptosis induction is one of the most common mechanisms of cell death exerted by antineoplastic drugs. This is because cancer cells can evade this cell death mechanism, allowing malignant cells to survive and leading to tumor progression. Apoptosis involves several physiological cell modifications, including the destabilization of the phospholipid bilayer and the subsequent exposure of phosphatidylserine. This phospholipid can be easily recognized by annexin V, a protein that is useful for identifying apoptotic cells. Therefore, apoptosis was determined for both breast cancer human cell lines, MCF-7 and MDA-MB-231, and the NIH/3T3 non-tumoral cell line. […] Regarding non-malignant fibroblast cells (NIH/3T3), a slight decrease in live cells was observed only for compound 1c (60%) compared to the control (81%) and MTX (72%), as shown in Figure 12.
(§4) The annexin V cytometry assay was performed on malignant cells (MCF-7 and MDA-MB-231) and non-malignant cells (NIH/3T3) using the Annexin V-FITC Apoptosis Detection kit (Santa Cruz Biotechnology). The corresponding cells were seeded in a 12-well plate as previously described and incubated under standard conditions (1.5 × 10^5 cells/well). After 24 h of incubation, the exhausted medium was replaced, and cells were treated at the IC50 concentration for compound 1c and MTX. […]

Assay [7] deals with MDA-MB-231 cells. Description: Annexin V apoptosis induction assay, MDA-MB-231. The format is cell-based, human. Conditions: MDA-MB-231, IC50 concentration, 48 h.
Excerpt: as §3
The annexin V cytometry assay was performed on malignant cells (MCF-7 and MDA-MB-231) and non-malignant cells (NIH/3T3) using the Annexin V-FITC Apoptosis Detection kit (Santa Cruz Biotechnology). The corresponding cells were seeded in a 12-well plate as previously described and incubated under standard conditions (1.5 × 10^5 cells/well). After 24 h of incubation, the exhausted medium was replaced, and cells were treated at the IC50 concentration for compound 1c and MTX. After 48 h, the exhausted medium was recovered for cytometric measurements, and the cells were trypsinized, inactivated with DMEM, centrifuged, washed with PBS and centrifuged (1500 rpm, 5 min, 4 °C). The PBS was removed, and the remainder was drained on gauze. The formed pellet was shaken with 300 µL of the buffer from the flow cytometry kit (Miltenyi Biotec, Bergisch Gladbach, Germany), which had previously been prepared at a concentration of 1%. The sample was left to incubate for 15 min at room temperature, protected from light, and then 100 µL aliquots were taken to the flow cytometry equipment (BD FACSAria Fusion, Franklin Lakes, NJ, USA). Five microliters of annexin and two microliters of propidium iodide (100 µg/mL) were added to the reaction with the cells. […]

Assay [8] has as its system NIH/3T3 cells. Nature of the assay: Annexin V apoptosis induction assay, NIH/3T3. It is filed as cell-based, mouse. Conditions: NIH/3T3, IC50 concentration, 48 h; control 81%.
Excerpt: as §3, §4

One may read the IC50 as the concentration that inhibits the measured activity by half. Consider `O=C(Nc1nc2ccccc2s1)C(=S)NCc1ccccc1` [1a, N-(benzo[d]thiazol-2-yl)-2-(benzylamino)-2-thioxoacetamide], for which the concentration for half-maximal inhibition (IC50) worked out at 95 ± 13 µM in assay [1], 72 ± 7 µM in assay [2], 44 ± 6 µM in assay [3] and 29 ± 6 µM in assay [4].

Consider `COc1ccccc1CNC(=S)C(=O)Nc1nc2ccccc2s1` [1b, N-(benzo[d]thiazol-2-yl)-2-((2-methoxybenzyl)amino)-2-thioxoacetamide], for which the IC50 in assay [1] and in assay [2] was greater than 100 µM in each case.

As for `COc1ccc(CNC(=S)C(=O)Nc2nc3ccccc3s2)cc1` [1c, N-(benzo[d]thiazol-2-yl)-2-((4-methoxybenzyl)amino)-2-thioxoacetamide], the IC50 in assay [1] was 32 ± 5 µM; in assay [2] it was 52 ± 8 µM; in assay [3], 55 ± 6 µM; in assay [4], 41 ± 5 µM. In assay [1] (MCF-7 vs MCF-10A), the “selectivity toward malignant cells, fold more active in MCF-7 than in MCF-10A” value was 1.7 fold. Also, the “fold more active on MCF-7 cells than on MDA-MB-231 cells” value in assay [1] (MCF-7 vs MDA-MB-231) was found to be 1.6 fold. In assay [5], the wound closure rate is −1.0 ± 0.1 %area/h. Further, the maximum wound closure in assay [5] is reported as 51%. Further, the “late apoptosis cell population” value in assay [6] is “significant increase”. Also, the “effect on cell viability” value in assay [7] is “did not show a significant effect”. In assay [8], this compound showed a live cells of 60%.

In the case of `O=C(Nc1nc2ccccc2s1)C(=S)NCCc1ccccc1` [1d, N-(benzo[d]thiazol-2-yl)-2-(phenethylamino)-2-thioxoacetamide], the concentration for half-maximal inhibition (IC50) in assay [1] and in assay [2] was greater than 100 µM throughout.

Consider `Cc1ccc2nc(NC(=O)C(=S)NCc3ccccc3)sc2c1` [2a, 2-(benzylamino)-N-(6-methylbenzo[d]thiazol-2-yl)-2-thioxoacetamide], for which the IC50 is 72 ± 9 µM in assay [1], greater than 100 µM in assay [2], 43 ± 6 µM in assay [3] and 22 ± 4 µM in assay [4].

Turning to `COc1ccccc1CNC(=S)C(=O)Nc1nc2ccc(C)cc2s1` [2b, 2-((2-methoxybenzyl)amino)-N-(6-methylbenzo[d]thiazol-2-yl)-2-thioxoacetamide], the results for the IC50 in assay [1], in assay [2] and in assay [3] were greater than 100 µM, greater than 100 µM and 42 ± 5 µM, respectively.

In the case of `COc1ccc(CNC(=S)C(=O)Nc2nc3ccc(C)cc3s2)cc1` [2c, 2-((4-methoxybenzyl)amino)-N-(6-methylbenzo[d]thiazol-2-yl)-2-thioxoacetamide], the IC50 in assay [1] was 88 ± 6 µM; in assay [2] it was greater than 100 µM; in assay [3], 74 ± 12 µM; in assay [4] it was 31 ± 6 µM.

As for `Cc1ccc2nc(NC(=O)C(=S)NCCc3ccccc3)sc2c1` [2d, N-(6-methylbenzo[d]thiazol-2-yl)-2-(phenethylamino)-2-thioxoacetamide], the IC50 in assay [1] and in assay [2] was greater than 100 µM each time.

As to `CN(Cc1cnc2nc(N)nc(N)c2n1)c1ccc(C(=O)N[C@@H](CCC(=O)O)C(=O)O)cc1` [MTX, methotrexate, reference compound], the IC50 was 0.8 ± 0.1 µM in assay [1], 28 ± 3 µM in assay [2], 14 ± 3 µM in assay [3] and 26 ± 5 µM in assay [4]. Also, the wound closure rate in assay [5] is −0.7 ± 0.1 %area/h. For the same compound, the maximum wound closure in assay [5] was 38%. Besides, the “late apoptosis cell population” value in assay [6] is “significant increase”. For the same compound, the “effect on cell viability” value in assay [7] is recorded as “did not show a significant effect”. Besides, in assay [7] (non-treated cells 14%), the “percentage of late apoptotic cells” value stood at 9%. Also, the live cells in assay [8] is recorded as 72%.
